Assays:
human PBMCs = assay: PHA-induced proliferation of human PBMCs; format: cell-based; conditions: 1.25-50.0 µg/mL, 4 days
Description: Human PBMCs were cultured for 4 days in the absence or presence of varying concentrations of JO-4 (1.25, 2.5, 5.0, 10.0 and 50.0 µg/mL). PHA is a potent T-cell mitogen and stimulates T-cells to produce IL-2.

NK activity = NK activity in vivo, spleen cells against YAC-1 targets, 51Cr-release; parameters: species or system Mice
[1] = test system: normal human peripheral blood mononuclear cells; assay: Colorimetric MTT cytotoxicity assay, normal PBMC; format: cell-based; conditions: 72 hours
Description: The following materials and methods were employed in the non-limiting Examples set out below. Tumor cells: Human cervical epitheloid carcinoma (HeLa), human renal clear cell carcinoma (CAKI-1), human malignant melanoma (RPMI-7951) and mouse malignant melanoma (B16-F1) were procured from ATCC (Rockville, MD) and maintained in vitro with MEM medium (Mediatech, Inc., Herndon, VA) supplemented with 10% heat-inactivated fetal bovine serum (American Qualex, San Clemente, CA), 10mM glutamine, 100 U/ml penicillin, and 100 µg/ml streptomycin (Sigma Chemicals, Saint Louis, MO) (complete medium). […] Cell viability was assessed by trypan blue dye exclusion test and the cell number was adjusted to required concentration. Colorimetric MTT assay: Cytotoxic effects of the hypoestoxide compounds of formulas I and II (JO-4A) were determined in vitro by a colorimetric assay (Mosmann, T., J. Immunol. Methods, 65: 55-63, 1983). […] Mixing with a multichannel pipetter dissolved the dark blue crystals and the absorbance was measured at 545-650 nm using an ELISA plate reader. […] The tumors were measured with a microcaliper, and the tumor volume was calculated by the formula: Length x width x height x 0.5236 (Jungwirth, A. et al., Proc. Natl. Acad. Sci. USA, 94:5810-5813, 1997). […]

SMILES | effect on PHA-induced proliferation of human lymphocytes (human PBMCs) | NK activity in vivo (NK activity; intravenous administration) | NK activity in vivo (NK activity; oral administration) | cytotoxic effect [1]
C=C1C(=O)C[C@H]2C[C@@H]3O[C@@]3(C)CC[C@@H]3O[C@@]3(C)C[C@@H](OC(C)=O)[C@H]1C2(C)C [JO-4, hypoestoxide] | inhibitory effect |  |  | 
C=C1C(=O)CC2CC3OC3(C)CCC3OC3(C)CC(O)C1C2(C)C (stereo not shown) [JO-4A] |  | inhibited | inhibited | no cytotoxic effect

Reference: patent EP0986381B1, “USE OF DITERPENES LIKE HYPOESTOXIDES FOR THE MANUFACTURE OF A MEDICAMENT FOR IMMUNOSUPPRESSION, ANTICANCER AND ANTIVIRAL TREATMENT” (Immune Modulation, Inc., priority 1997, dated 1998)
